From paper PMC8398472, “Anticancer Diiron Vinyliminium Complexes: A Structure–Activity Relationship Study” (Pharmaceutics, 2021)

Test system: human ovarian carcinoma cisplatin-resistant A2780cisR
Test: Cytotoxicity, WST-1 cell viability assay, A2780cisR
Format: cell-based
Conditions: for IC50: 72 h exposure
Procedure: In vitro cytotoxicity investigations were carried out by using human ovarian carcinoma cisplatin-sensitive A2780 (ECACC93112519), human ovarian carcinoma cisplatin-resistant A2780cisR (ECACC 93112517) and mouse embryo fibroblasts Balb/3T3 clone A31 (ATCC CCL-163) cell lines. A2780 and A2780cisR were purchased from the European Collection of Authenticated Cell Cultures (ECACC), and Balb/3T3 clone A31 cell line from the American Type Culture Collection (ATCC).
A2780 and A2780cisR cells were routinely cultured in RPMI 1640 (Merck) containing 2 mM of L-glutamine (Merck), 1% of penicillin/streptomycin solution (Merck—10 000 U mL^−1: 10 mg mL^−1), 10% of fetal bovine serum (Merck—FBS) and antimycotic (InvivoGen, USA), and Balb/3T3 clone A31 in Dulbecco’s modified Eagle medium (Merck—DMEM) supplemented with 4 mM of L-glutamine, 1% of penicillin/streptomycin solution, 10% of calf serum (Merck) and antimycotic. […] The cultures were maintained at 37 °C and in a 5% CO2-enriched atmosphere.
A2780, A2780cisR and Balb/3T3 clone A31 cells were seeded in 96-well tissue culture polystyrene plates at a concentration of 3 × 10^3, 6 × 10^3 and 1 × 10^3 cells per well, respectively. After overnight incubation, the cells were treated with different concentrations (0–100 µM) of the selected compounds for 72 h at 37 °C in a 5% atmosphere of CO2. Stock solutions of compounds were prepared in DMSO and sequentially diluted in medium (final DMSO concentration of 0.5%). […] At the end of the incubation time, cell viability was assessed by means of WST-1 tetrazolium salt reagent (Roche). Briefly, cells were incubated for 4 h with the tetrazolium salt reagent diluted 1:10, at 37 °C and 5% CO2. Measurements of formazan dye absorbance, which directly correlates with the number of viable cells, were carried out with a micro-plate reader (Biorad) at 450 nm, using 655 nm as reference wavelength. The 50% inhibitory concentration (IC50) refers to compound concentration at which 50% of cell death is observed with respect to the control. For each tested compound, assay was performed on triplicate. The concentration effect curves were generated by nonlinear regression curves (GraphPad Prism Software, 2021) and the data reported as mean ± standard deviation.

## [Fe2Cp2(CO)(μ-CO){μ-η^1:η^3-C^3(Me)C^2(Me)C^1NMe(4-C6H4OMe)}]CF3SO3 [Compound 6c]
  IC50: 17 ± 3 µM

## [Fe2Cp2(CO)(μ-CO){μ-η^1:η^3-C^3(Me)C^2(Me)C^1NMe(CH2Ph)}]CF3SO3 [Compound 5b]
  IC50: 12 ± 4 µM

## [Fe2Cp2(CO)(μ-CO){μ-η^1:η^3-C^3(Me)C^2(Me)C^1NMe(Cy)}]CF3SO3 [Compound 4c]
  IC50: 11.4 ± 0.9 µM
Balb/3T3 compared to A2780cisR
  Selectivity index vs A2780cisR: 8

## [Fe2Cp2(CO)(μ-CO){μ-η^1:η^3-C^3(Me)C^2HC^1NMe(Cy)}]CF3SO3 [Compound 4a]
  IC50: 11.6 ± 1.3 µM

## [Fe2Cp2(CO)(μ-CO){μ-η^1:η^3-C^3(Ph)C^2HC^1NMe(CH2CH = CH2)}]CF3SO3 [Compound 3b]
  IC50: 29 ± 3 µM
